The term MIC denotes the lowest concentration found to suppress growth. A low value points to greater potency.

5 molecules from DBAASP can be followed below.

Some test systems named below: Candida albicans; Escherichia coli UB1005; Pseudomonas aeruginosa; Pseudomonas fluorescens; Staphylococcus aureus; Aeromonas hydrophila; Escherichia coli MG1655; Vibrio harveyi; Candida glabrata; Candida tropicalis; Cryptococcus neoformans; Escherichia coli BW25113.
Assay in all cases: ≥ marks a high value that may be exact or a test limit, other limits are often not marked, values filed in µg/mL are converted to µM
In assay [1] the test system is Achromobacter xylosoxidans.
The test system of assay [2] is Pseudomonas aeruginosa ATCC 9027.
Assay [3] relates to Pseudomonas aeruginosa M1251.
Assay [4] has as its system Pseudomonas aeruginosa M1426.
For assay [5], the system named is Pseudomonas aeruginosa M76.
For assay [6], the system named is Pseudomonas aeruginosa M917.
In assay [7] the test system is Pseudomonas aeruginosa R70.
Assay [8] concerns Salmonella enterica serovar Typhimurium.
The subject of assay [9] is Staphylococcus aureus ATCC 6538.
Assay [10] deals with Stenotrophomonas maltophilia.
Assay [11] deals with Candida albicans ATCC 200955.
The test system of assay [12] is Candida albicans ATCC 36232.
The test system of assay [13] is Candida krusei ATCC 200917.
Assay [14] deals with Candida krusei ATCC 90878.
Assay [15] concerns Escherichia coli ATCC 2592.
For assay [16], the system named is Micrococcus luteus ATCC 9341.
For assay [17], the system named is Acinetobacter baumannii ATCC 7978.
Assay [18] relates to Enterococcus faecium E007.
The subject of assay [19] is Staphylococcus aureus ATCC 29231.
For assay [20], the system named is Staphylococcus aureus MW2.
Assay [21] deals with Acinetobacter baumannii ATCC 19606.
The test system of assay [22] is Escherichia coli BW25113 ΔsbmA.
Assay [23] concerns Klebsiella pneumoniae ATCC 700603.
Assay [24] has as its system Pseudomonas aeruginosa ATCC 27853.
For assay [25], the system named is Staphylococcus aureus ATCC 25923.

Molecules are shown by their SMILES. In brackets after ≈: the same amount, converted by molar mass. Several values for one entry are separate records, joined by “and”; a condition that tells them apart may be missing. Equal values may be shown once.

On to `CC(C)C[C@H](NC(=O)[C@H](CC(C)C)NC(=O)[C@H](CCCCN)NC(=O)[C@H](CCCCN)NC(=O)[C@H](C)NC(=O)[C@H](CC(C)C)NC(=O)[C@H](CCCCN)NC(=O)[C@H](C)NC(=O)[C@H](CC(C)C)NC(=O)[C@H](CC(C)C)NC(=O)[C@H](CCCCN)NC(=O)[C@H](C)NC(=O)[C@@H](N)Cc1ccccc1)C(N)=O` [FAKLLAKLAKKLL], for which the MIC was not below 43.9 µM in assay [1]; 5.49 µM (≈ 7.99 µg/mL) against Candida albicans; 2.75 µM (≈ 4 µg/mL) in the assay with Escherichia coli UB1005; 68.6 µM (≈ 99.9 µg/mL) in [2]; 2.75 µM (≈ 4 µg/mL) in [3]; 5.49 µM (≈ 7.99 µg/mL) in assay [4]. Besides, the MIC in [5] is 2.75 µM (≈ 4 µg/mL); in [6] it was 11 µM (≈ 16 µg/mL); in assay [7], 2.75 µM (≈ 4 µg/mL); against Pseudomonas aeruginosa, 5.49 µM (≈ 7.99 µg/mL); against Pseudomonas fluorescens it was 5.49 µM (≈ 7.99 µg/mL); in assay [8], 2.75 µM (≈ 4 µg/mL). Moreover, the MIC is 3.43 µM (≈ 5 µg/mL) in assay [9], 2.75 µM (≈ 4 µg/mL) against Staphylococcus aureus and 1.37 µM (≈ 2 µg/mL) in assay [10].
Turning to `CC[C@H](C)[C@H](NC(=O)[C@H](C)NC(=O)[C@H](CCCN=C(N)N)NC(=O)[C@H](Cc1cnc[nH]1)NC(=O)[C@@H](NC(=O)[C@H](C)NC(=O)[C@H](CCCN=C(N)N)NC(=O)[C@@H](NC(=O)CNC(=O)[C@H](Cc1cnc[nH]1)NC(=O)[C@H](CO)NC(=O)[C@@H](NC(=O)[C@H](Cc1c[nH]c2ccccc12)NC(=O)CNC(=O)[C@@H](NC(=O)[C@@H](NC(=O)[C@H](Cc1cnc[nH]1)NC(=O)[C@H](C)NC(=O)[C@@H](NC(=O)[C@@H](N)Cc1ccccc1)[C@@H](C)CC)[C@@H](C)CC)[C@@H](C)CC)[C@@H](C)CC)C(C)C)[C@@H](C)CC)C(=O)N[C@@H](Cc1cnc[nH]1)C(N)=O` [FIAHIIGWISHGVRAIHRAIH], the MIC with Aeromonas hydrophila is not below 128 µM; against Escherichia coli MG1655 it was 16 µM and ≥ 32 µM; in the assay on Vibrio harveyi it was not below 32 µM.
In the case of `CC(C)[C@H](NC(=O)[C@H](CCCCN)NC(=O)[C@H](Cc1ccccc1)NC(=O)[C@@H](NC(=O)[C@@H](NC(=O)[C@H](CCCCN)NC(=O)[C@@H](N)CCCCN)C(C)C)C(C)C)C(=O)N[C@@H](CCCCN)C(=O)N[C@@H](Cc1ccccc1)C(=O)N[C@@H](CCCCN)C(=O)N[C@@H](CCCCN)C(N)=O` [KKVVFKVKFKK], the MIC is 3.2 µM (≈ 4.41 µg/mL) in assay [11]; 2.27 µM and 3.21 µM and 4.53 µM in [12]; 5.8 µM (≈ 7.99 µg/mL) with Candida albicans; 23.2 µM (≈ 32 µg/mL) in the assay on Candida glabrata; 1.6 µM (≈ 2.2 µg/mL) in assay [13]; 1.6 µM (≈ 2.2 µg/mL) in assay [14]. The MIC was 2.9 µM (≈ 4 µg/mL) against Candida tropicalis; 2.9 µM (≈ 4 µg/mL) in the assay on Cryptococcus neoformans; 7.98 µM (≈ 11 µg/mL) in assay [15]; 2.27 µM (≈ 3.13 µg/mL) in assay [16]; 4.35 µM (≈ 6 µg/mL) in [2]; 2.27 µM (≈ 3.13 µg/mL) in [9].
As for `CC[C@H](C)[C@H](NC(=O)[C@H](CCCCN)NC(=O)[C@H](CCCCN)NC(=O)[C@@H](N)CC(C)C)C(=O)NCC(=O)N[C@@H](CCCCN)C(=O)N[C@@H](CCCCN)C(=O)N[C@H](C(=O)N[C@@H](Cc1c[nH]c2ccccc12)C(=O)N[C@@H](CCCN=C(N)N)C(=O)N[C@H](C(=O)NCC(=O)N[C@@H](Cc1c[nH]c2ccccc12)C(=O)N[C@@H](CC(N)=O)C(=O)N[C@H](C(=O)N[C@@H](CCCN=C(N)N)C(=O)O)[C@@H](C)O)C(C)C)[C@@H](C)CC` [LKKIGKKIWRVGWNTR], the MIC in assay [17], in [18], in [19] and in assay [20] was not below 64.5 µM throughout.
As for `CC[C@H](C)[C@H](NC(=O)[C@H](CCCN=C(N)N)NC(=O)[C@@H](N)Cc1c[nH]c2ccccc12)C(=O)N[C@@H](CCCN=C(N)N)C(=O)N[C@@H](CCCN=C(N)N)C(=O)N[C@@H](CCCN=C(N)N)C(=O)N1CCC[C@H]1C(=O)N1CCC[C@H]1C(=O)N[C@@H](CCCN=C(N)N)C(=O)N[C@@H](CC(C)C)C(=O)N1CCC[C@H]1C(=O)N[C@@H](CCCN=C(N)N)C(=O)N1CCC[C@H]1C(=O)N[C@@H](CCCN=C(N)N)C(=O)N[C@@H](Cc1c[nH]c2ccccc12)C(=O)N[C@@H](CCCN=C(N)N)C(=O)O` [WRIRRRPPRLPRPRWR], the MIC in [21] was 32 µM (≈ 72.2 µg/mL); in [22] it was 3 µM (≈ 6.76 µg/mL); with Escherichia coli BW25113, 2 µM (≈ 4.51 µg/mL); in assay [23], 4 µM (≈ 9.02 µg/mL); in [24], 64 µM (≈ 144 µg/mL); in assay [25] it was 32 µM (≈ 72.2 µg/mL).
